Laboratory results published in patent publication US6218393A, “Anthranilic acid derivatives as multi drug resistance modulators” (priority 1997, dated 2001).

Assays:
AR 1.0 cells [1] = assay: Potentiation index with doxorubicin titration; type: cell-based, mouse; conditions: for Potentiation Index at RMA concentration 50 nM: Table C1, RMA 50 nM; for Potentiation Index at RMA concentration 300 nM: Table C2, RMA 300 nM; for Potentiation Index at RMA concentration 500 nM: Table C2, RMA 500 nM
Procedure, shortened: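 Doxorubicin IC50 in AR 1.0 cells (MDR subline of EMT6 mouse mammary carcinoma) determined by sulphorhodamine B after 4-day culture across 0.263 nM-17.24 μM, with and without a fixed dose of test compound; their ratio gives the PI.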

AR 1.0 cells [2] = assay: Drug accumulation assay: daunorubicin accumulation in AR 1.0 cells; type: cell-based; conditions: Mus musculus, 100% = accumulation with verapamil 100 μM, 1 hr, 37° C.
Procedure, shortened: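 Daunorubicin accumulation was measured in cells plated 48 h beforehand. These were AR 1.0 cells, an MDR-resistant derivative of mouse EMT6 mammary carcinoma, cultured at 37 °C in 5% CO2 in RPMI 1640 plus 10% foetal calf serum and 2 mM glutamine.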

H69/LX4 cells = assay: Potentiation of toxicity of various cytotoxic agents, H69/LX4 cell line; type: cell-based; conditions: Taxol; for Potentiation Index at RMA concentration 30 nM: RMA 30 nM; for Potentiation Index at RMA concentration 50 nM: RMA 50 nM
Protocol: (b) Cells were cultured for four days with a titration of doxorubicin (0.263 nM-17.24 μM) in the presence of a fixed concentration of each compound. Proliferation was quantified as described by Skehen et al, loc cit. The IC50 (concentration required to reduce proliferation to 50% of the untreated controls) for doxorubicin alone and with each compound were derived and used to calculate the potentiation index (PI): [formula]
The potentiation indices of a selection of compounds using a variety of cell lines and a variety of cytotoxics other than doxorubicin were measured following the protocol described above for doxorubicin, and the results are shown in Table D.

AR 1.0 cells [3] = assay: Potentiation of doxorubicin toxicity: proliferation assay (sulphorhodamine B); type: cell-based, mouse
Excerpt: (a) Selected compounds of formula (I) were examined for their ability to potentiate the toxicity of doxorubicin in AR 1.0 cells.

[4] = Mus musculus, 96 h, compound alone, four day proliferation, read-out: Compound Toxicity (IC50)
[5] = with fixed doxorubicin 0.34 μm, four days, 5760 min, read-out: Toxicity with Cytotoxic Agent (IC50)

IC50 (AR 1.0 cells [2]) [nM]	SMILES	Potentiation Index at RMA concentration 10 nM (AR 1.0 cells [1]; Table C1, RMA 10 nM)	Potentiation Index at RMA concentration 30 nM (AR 1.0 cells [1]; Table C1, RMA 30 nM)	Potentiation Index at RMA concentration 50 nM (AR 1.0 cells [1])	Potentiation Index at RMA concentration 100 nM (AR 1.0 cells [1]; Table C1, RMA 100 nM)	Potentiation Index at RMA concentration 30 nM (H69/LX4 cells)	Potentiation Index at RMA concentration 50 nM (H69/LX4 cells)	Potentiation Index at RMA concentration 10 nM (H69/LX4 cells; RMA 10 nM)	Potentiation Index at RMA concentration 300 nM (AR 1.0 cells [1])	IC50 (AR 1.0 cells [3]; [4]) [nM]	IC50 (AR 1.0 cells [3]; [5]) [nM]	Potentiation Index at RMA concentration 500 nM (AR 1.0 cells [1])	Potentiation Index at RMA concentration 100 nM (AR 1.0 cells [1]; Table C2, RMA 100 nM)	Potentiation Index at RMA concentration 10 nM (AR 1.0 cells [1]; Table C2, RMA 10 nM)	Potentiation Index at RMA concentration 30 nM (AR 1.0 cells [1]; Table C2, RMA 30 nM)
278	COc1ccc(CN2CCc3ccc(NC(=O)c4ccccc4NC(=O)c4cnc5ccccc5n4)cc3C2)cc1OC [compound 9614, Quinoxaline-2-carboxylic acid {2-[2-(3,4-dimethoxy-benzyl)-1,2,3,4-tetrahydro-isoquinolin-7-ylcarbamoyl]-phenyl}-amide]	2	9	32	52	1.1	11	–	–	–	–	–	–	–	–
98	COc1ccc(CN(C)CCc2ccc(NC(=O)c3ccccc3NC(=O)c3cnc4ccccc4c3)cc2)cc1OC [compound 9613, Quinoline-3-carboxylic acid [2-(4-{2-[(3,4-dimethoxy-benzyl)-methyl-amino]-ethyl}-phenylcarbamoyl)-phenyl]-amide]	3	35	97	168	236	877	2.2	–	–	–	–	–	–	–
390	COc1cc2c(cc1OC)CN(CCNC(=O)c1ccccc1NC(=O)c1ccc3ccccc3c1)CC2 [compound 9295, Naphthalene-2-carboxylic acid {2-[2-(6,7-dimethoxy-3,4-dihydro-1H-isoquinolin-2-yl)-ethylcarbamoyl]-phenyl}-amide]	–	–	–	–	–	–	–	16	40000	600	–	–	–	–
1000	COc1cc2c(cc1OC)CN(CCNC(=O)c1ccccc1NC(=O)c1ccc(OCc3ccccc3)cc1)CC2 [compound 9460, 2-(4-Benzyloxy-benzoylamino)-N-[2-(6,7-dimethoxy-3,4-dihydro-1H-isoquinolin-2-yl)-ethyl]-benzamide]	–	–	–	–	–	–	–	18	7500	180	36	–	–	–
220	COc1cc2c(cc1OC)CN(CCc1ccc(NC(=O)c3ccccc3NC(=O)c3cnccn3)cc1)CC2 [compound 9493, Pyrazine-2-carboxylic acid (2-{4-[2-(6,7-dimethoxy-3,4-dihydro-1H-isoquinolin-2-yl)-ethyl]-phenylcarbamoyl}-phenyl)-amide]	–	–	–	–	–	–	–	85	9000	50	200	7.6	–	–
700	COc1cc2c(cc1OC)CN(CCc1ccc(NC(=O)c3ccccc3NC(=O)c3ccc(C(C)C)cc3)cc1)CC2 [compound 9447, 2-(4-Isopropyl-benzoylamino)-N-{4-[2-(6,7-dimethoxy-3,4-dihydro-1H-isoquinolin-2-yl)-ethyl]-phenyl}-benzamide]	–	–	–	–	–	–	–	40	6800	65	340	–	–	–
9.5	COc1cc2c(cc1OC)CN(CCc1ccc(NC(=O)c3cc(OC)c(OC)cc3NC(=O)c3cnc4ccccc4n3)cc1)CC2 [compound 9573, Quinoxaline-2-carboxylic acid (2-{4-[2-(6,7-dimethoxy-3,4-dihydro-1H-isoquinolin-2-yl)-ethyl]-phenylcarbamoyl}-4,5-dimethoxy-phenyl)-amide]	–	–	–	–	–	–	–	–	4000	–	–	100	83	94
1000	COc1cc2c(cc1OC)CN(CCc1ccc(NC(=O)c3ccc(N)cc3NC(=O)c3cnc4ccccc4c3)cc1)CC2 [compound 9589, Quinoline-3-carboxylic acid (2-{4-[2-(6,7-dimethoxy-3,4-dihydro-1H-isoquinolin-2-yl)-ethyl]-phenylcarbamoyl}-5-amino-phenyl)-amide]	–	–	–	–	–	–	–	–	36800	–	–	–	1	1
500	COc1cc2c(cc1OC)CN(CCc1ccc(NC(=O)c3ccccc3NC(=O)c3cccc(Cl)c3)cc1)CC2 [compound 9495, 2-(3-chloro-benzoylamino)-N-{4-[2-(617-dimethoxy-3,4-dihydro-1H-isoquinolin-2-yl)-ethyl]-phenyl}-benzamide]	–	–	–	–	–	–	–	261	4000	–	567	15	–	1.3
1200	COc1cc2c(cc1OC)CN(CCNC(=O)c1ccccc1NC(=O)c1ccc(C(C)C)cc1)CC2 [compound 9304, 2-(4-Isopropyl-benzoylamino)-N-[2-(6,7-dimethoxy-3,4-dihydro-1H-isoquinolin02-yl)-ethyl]-benzamide]	–	–	–	–	–	–	–	–	8000	150	30	–	–	–
22	COc1cc2c(cc1OC)CN(CCc1ccc(NC(=O)c3ccc(F)cc3NC(=O)c3cnc4ccccc4c3)cc1)CC2 [compound 9571, Quinoline-3-carboxylic acid (2-{4-[2-(6,7-dimethoxy-3,4-dihydro-1H-isoquinolin-2-yl)-ethyl]-phenylcarbamoyl}-5-fluoro-phenyl)-amide]	–	–	–	–	–	–	–	–	2000	0.8	–	100	38	100
300	COc1cc2c(cc1OC)CN(CCc1ccc(NC(=O)c3ccccc3NC(=O)c3ccccc3)cc1)CC2 [compound 9456, 2-Benzoylamino-N-{4-[2-(6,7-dimethoxy-3,4-dihydro-1H-isoquinolin-2-yl)-ethyl]-phenyl}-benzamide]	–	–	–	–	–	–	–	–	5000	–	–	112	–	–
450	COc1cc2c(cc1OC)CN(CCc1ccc(NC(=O)c3ccccc3NC(=O)c3ccc(Cl)c(Cl)c3)cc1)CC2 [compound 9536, 2-(3,4-Dichloro-benzoylamino)-N-{4-[2-(6,7-dimethoxy-3,4-dihydro-1H-isoquinolin-2-yl)-ethyl]-phenyl}-benzamide]	–	–	–	–	–	–	–	128	2650	15	–	32	–	–
15	COc1cc2c(cc1OC)CN(CCc1ccc(NC(=O)c3ccc([N+](=O)[O-])cc3NC(=O)c3cnc4ccccc4c3)cc1)CC2 [compound 9581, Quinoline-3-carboxylic acid (2-{4-[2-(6,7-dimethoxy-3,4-dihydro-1H-isoquinolin-2-yl)-ethyl]-phenylcarbamoyl}-5-nitro-phenyl)-amide]	–	–	–	–	–	–	–	–	310	–	–	–	90	300
70	COc1cc2c(cc1OC)CN(CCc1ccc(NC(=O)c3cc(C)ccc3NC(=O)c3cnc4ccccc4n3)cc1)CC2 [compound 9543, Quinoxaline-2-carboxylic acid (2-{4-[2-(6,7-dimethoxy-3,4-dihydro-1H-isoquinolin-2-yl)-ethyl]-phenylcarbamoyl}-4-methyl-phenyl)-amide]	–	–	–	–	–	–	–	150	900	8	–	150	24	120
20	COc1cc2c(cc1OC)CN(CCc1ccc(NC(=O)c3ccc([N+](=O)[O-])cc3NC(=O)c3cnc4ccccc4n3)cc1)CC2 [compound 9541, Quinoxaline-2-carboxylic acid (2-{4-(2-(6,7-dimethoxy-3,4-dihydro-1H-isoquinolin-2-yl)-ethyl]-phenylcarbamoyl}-5-nitro-phenyl)-amide]	–	–	–	–	–	–	–	160	860	6	–	160	75	150

SMILES	IC50 (AR 1.0 cells [2]) [nM]	Potentiation Index at RMA concentration 10 nM (AR 1.0 cells [1]; Table C1, RMA 10 nM)	Potentiation Index at RMA concentration 30 nM (AR 1.0 cells [1]; Table C1, RMA 30 nM)	Potentiation Index at RMA concentration 50 nM (AR 1.0 cells [1])	Potentiation Index at RMA concentration 100 nM (AR 1.0 cells [1]; Table C1, RMA 100 nM)	Potentiation Index at RMA concentration 30 nM (H69/LX4 cells)	Potentiation Index at RMA concentration 50 nM (H69/LX4 cells)	Potentiation Index at RMA concentration 10 nM (H69/LX4 cells; RMA 10 nM)	Potentiation Index at RMA concentration 300 nM (AR 1.0 cells [1])	IC50 (AR 1.0 cells [3]; [4]) [nM]	IC50 (AR 1.0 cells [3]; [5]) [nM]	Potentiation Index at RMA concentration 500 nM (AR 1.0 cells [1])	Potentiation Index at RMA concentration 100 nM (AR 1.0 cells [1]; Table C2, RMA 100 nM)	Potentiation Index at RMA concentration 10 nM (AR 1.0 cells [1]; Table C2, RMA 10 nM)	Potentiation Index at RMA concentration 30 nM (AR 1.0 cells [1]; Table C2, RMA 30 nM)
O=C(Nc1ccccc1C(=O)Nc1ccc(CCN2CCc3ccccc3C2)cc1)c1cnc2ccccc2c1 [compound 9577, Quinoline-3-carboxylic acid (2-{4-[2-(3,4-dihydro-1H-isoquinolin-2-yl)-ethyl]-phenylcarbamoyl}-phenyl)-amide]	320	–	–	–	–	–	–	–	–	7700	–	–	112	2.2	18
